From paper PMC8950868, “Identifying Human PTP1B Enzyme Inhibitors from Marine Natural Products: Perspectives for Developing of Novel Insulin-Mimetic Drugs” (Pharmaceuticals, 2022)

Legend:
PTP1B [1] = molecular target: T1, PTP1B (Homo sapiens, UniProt P18031); assay: Dilution (reversibility) assay with PTP1B; format: biochemical; conditions: 50 µM, 1 h at 37 °C, then diluted 500 fold
T1 construct: human recombinant PTP1B (1–302)
T1 sequence (P18031 1-302): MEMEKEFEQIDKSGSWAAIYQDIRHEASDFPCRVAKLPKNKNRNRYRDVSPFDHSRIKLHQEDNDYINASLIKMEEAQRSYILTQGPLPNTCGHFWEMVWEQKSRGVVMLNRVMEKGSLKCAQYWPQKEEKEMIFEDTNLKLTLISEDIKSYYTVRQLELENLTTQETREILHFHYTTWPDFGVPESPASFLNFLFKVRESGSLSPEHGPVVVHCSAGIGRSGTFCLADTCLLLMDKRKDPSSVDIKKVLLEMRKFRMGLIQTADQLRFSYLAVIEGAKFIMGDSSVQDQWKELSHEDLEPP
Description: A dilution test was carried out to evaluate if the compound behaves as reversible or irreversible inhibitor of PTP1B. Briefly, an aliquot of the enzyme was diluted with different concentration of inhibitor and the samples incubated at 37 °C for 1 h. After this time, an aliquot of these samples was diluted 500 times in the assay buffer containing 2.5 mM p-NPP, to evaluate whether the enzyme is able to recover its activity since the final concentration of inhibitor is now far away from its IC50 value. Control test was carried out diluting the enzyme with an equal volume of deionised water. All tests were performed in triplicate.
Figure 4 Dilution assay. To evaluate the mechanism of action of the compounds, a reversibility assay was carried out. The PTP1B was incubated in the presence of the saturating concentration of each compound (50 µM) for 1 h at 37 °C. Then, an aliquot of enzyme was diluted 500 folds in the assay buffer to evaluate the residual activity of the enzyme. Tests were carried out in triplicate. Data represent the mean value ± SD.

PTP1B [2] = molecular target: T1, PTP1B; assay: Determination of the mechanism of inhibition on PTP1B (KM, Vmax, Lineweaver-Burk, secondary plots); format: biochemical; conditions: for α: Ki′ = αKi; for Ki′: from 1/Vmax versus inhibitor concentration (Ki′ = αKi); for Ki: from KM/Vmax versus inhibitor concentration
Description: The inhibitory mechanism of tested compounds was determined studying the dependence between the main kinetics parameters (KM and Vmax) and the inhibitors concentrations. Briefly, KM and Vmax values were calculated measuring the hydrolysis rate of PTP1B in the absence/presence of different inhibitor concentrations, while increasing substrate content. Data obtained were fitted using Michaelis-Menten equation and a non-linear fitting software. Then, data were analysed using the double reciprocal plot (Lineweaver-Burk method).
Figure 5 Kinetic characterization of 3 as PTP1B inhibitor. […] Dependence of main kinetic parameters KM (A) and Vmax (B) from the concentration of compound 3. Lineweaver-Burk plot (C). Bars represent the standard deviations of the means from at least three independent measurements (if not present, they are within the symbol’s size). […] E, free enzyme; S, substrate; ES, enzyme-substrate complex; EI, enzyme-inhibitor complex; ESI the enzyme-substrate-inhibitory ternary complex; Ks, dissociation constant of the enzyme-substrate complex; Ki, dissociation constant of EI complex; αKs and αKi, dissociation constant of enzyme-substrate-inhibitor complex (α > 1).
Figure 6 Secondary plots. KM/Vmax (A) and 1/Vmax (B) versus the inhibitor concentration, respectively. The intercept of straight line with the “x” axis in Panel A, represents the Ki value, while the intercept of straight line with the “x” axis in Panel B represents the Ki′ value (Ki′ = αKi).
Figure 7 Kinetic characterization of 8a as PTP1B inhibitor. […] Dependence of KM (A) and Vmax (B) from the inhibitor concentration. Lineweaver-Burk graph (C). Bars represent the standard deviations of the means from at least three independent measurements (if not present, they are within the symbol’s size). Secondary plots: KM/Vmax (D) and 1/Vmax (E) versus the inhibitor concentration, respectively. The intercept of straight line with the “x” axis in Figure D represents the Ki value, while the intercept of straight line with the “x” axis in Figure E represents the Ki′ value (Ki′ = αKi).

GST–PTP1B fusion protein = system: GST–PTP1B fusion protein; design: method as in PMID 27064611; conditions: different pH value, read-out: IC50 on PTP1B previously determined; cited from earlier work
C2C12 cells = assay: Glucose uptake assay (2-NBDG, flow cytometry); format: cell-based, murine; conditions: 20 µM compound alone, 30 min, then 2-NBDG 3 h
Description: To evaluate glucose uptake, C2C12 cells were grown until 80% confluence and then incubated in starvation medium for 24 h. After this time, cells were stimulated with 10 nM insulin (Humalog Lispro, Eli Lilly), 20 µM compound 3 or 3-insulin combination for 30 min and then incubated in the presence of 40 µM of 2-NBDG (Invitrogen) for 3 h. Then, cells were washed with PBS, tripsinized, pelleted by centrifugation (1000× g for 5 min), then suspended in 500 µL of PBS. The amount of 2-NBDG uploaded by cells was determined analysing cells by using a flow cytometer apparatus (FACSCanto II, BD Biosciences, San Jose, CA, USA). For each sample 1 × 10^4 events were acquired. Data obtained were then analysed with FlowJo software. Cells autofluorescence values were determined before sample analysis and subtracted to each sample.
Figure 13 Glucose uptake assay. C2C12 cells were treated with 10 nM insulin, 20 µM compound 3 or 3-insulin combination and then incubated in the presence of 2-NBDG for 3 h. After that, the glucose uptake was analysed by flow cytometry analysis. Each test was carried out in quadruplicate. For each test, 10,000 events at least were analysed. (A), quantification of the mean fluorescence values of C2C12 cells. Data represents the mean value ± SD (n = 4). […] (B), representative cell fluorescence distribution obtained by analysing data with the FlowJo software. […]

Reversibility of PTP1B inhibition (PTP1B [1]) | Inhibitory mechanism on PTP1B (PTP1B [2]) | α (PTP1B [2]) | Ki′ (PTP1B [2]) [µM] | Ki (PTP1B [2]) [µM] | SMILES | IC50 (GST–PTP1B fusion protein) [µM] | Glucose uptake (2-NBDG) (C2C12 cells)
reversible inhibitors | mixed type inhibitor | 1.6 ± 0.1 | 5.4 ± 0.2 | 3.3 ± 0.4 | CCCCC[C@@H](OP(=O)(O)O)[C@@H](O)CC[C@H](CCCC)OC(C)=O (relative stereo) [Compound 8a] |  | 
reversible inhibitors | linear mixed-type inhibitor | 1.4 ± 0.2 | 9.4 ± 0.6 | 6.6 ± 0.8 | CCCCCCCCCCCCCCC(OP(=O)(O)O)C(O)CCCO (stereo not drawn) [Compound 3] | 24 ± 7 | incorporated more glucose than insulin-stimulated C2C12 cells
